ChEMBL document CHEMBL4725421, “SMARCA2/4 PROTAC for Targeted Protein Degradation and Cancer Therapy” (ACS Med Chem Lett, 2020)

Assays:
Assay type in all cases: cell-based
[1] = biological target: von Hippel-Lindau disease tumor suppressor/SWI/SNF-related matrix-associated actin-dependent regulator of chromatin subfamily A member 4 (Homo sapiens) (UniProt P51532+P40337); test: Protac activity at VHL/SMARCA4 in human A549 cells assessed as induction of SMARCA4 bromodomain degradation using anti-SMARCA4 antibody incubated for 18 hrs by WES capillary electrophoresis relative to initial level
Chain of von Hippel-Lindau disease tumor suppressor/SWI/SNF-related matrix-associated actin-dependent regulator of chromatin subfamily A member 4 (Homo sapiens) (P40337 whole entry, looked up): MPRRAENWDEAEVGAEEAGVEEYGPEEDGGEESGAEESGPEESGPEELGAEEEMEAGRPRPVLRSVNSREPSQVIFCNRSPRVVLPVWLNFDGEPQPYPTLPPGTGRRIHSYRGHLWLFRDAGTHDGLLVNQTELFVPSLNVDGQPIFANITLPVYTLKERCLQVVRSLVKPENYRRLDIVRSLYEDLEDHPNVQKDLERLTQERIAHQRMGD
Chain of von Hippel-Lindau disease tumor suppressor/SWI/SNF-related matrix-associated actin-dependent regulator of chromatin subfamily A member 4 (Homo sapiens) (P51532 whole entry, looked up): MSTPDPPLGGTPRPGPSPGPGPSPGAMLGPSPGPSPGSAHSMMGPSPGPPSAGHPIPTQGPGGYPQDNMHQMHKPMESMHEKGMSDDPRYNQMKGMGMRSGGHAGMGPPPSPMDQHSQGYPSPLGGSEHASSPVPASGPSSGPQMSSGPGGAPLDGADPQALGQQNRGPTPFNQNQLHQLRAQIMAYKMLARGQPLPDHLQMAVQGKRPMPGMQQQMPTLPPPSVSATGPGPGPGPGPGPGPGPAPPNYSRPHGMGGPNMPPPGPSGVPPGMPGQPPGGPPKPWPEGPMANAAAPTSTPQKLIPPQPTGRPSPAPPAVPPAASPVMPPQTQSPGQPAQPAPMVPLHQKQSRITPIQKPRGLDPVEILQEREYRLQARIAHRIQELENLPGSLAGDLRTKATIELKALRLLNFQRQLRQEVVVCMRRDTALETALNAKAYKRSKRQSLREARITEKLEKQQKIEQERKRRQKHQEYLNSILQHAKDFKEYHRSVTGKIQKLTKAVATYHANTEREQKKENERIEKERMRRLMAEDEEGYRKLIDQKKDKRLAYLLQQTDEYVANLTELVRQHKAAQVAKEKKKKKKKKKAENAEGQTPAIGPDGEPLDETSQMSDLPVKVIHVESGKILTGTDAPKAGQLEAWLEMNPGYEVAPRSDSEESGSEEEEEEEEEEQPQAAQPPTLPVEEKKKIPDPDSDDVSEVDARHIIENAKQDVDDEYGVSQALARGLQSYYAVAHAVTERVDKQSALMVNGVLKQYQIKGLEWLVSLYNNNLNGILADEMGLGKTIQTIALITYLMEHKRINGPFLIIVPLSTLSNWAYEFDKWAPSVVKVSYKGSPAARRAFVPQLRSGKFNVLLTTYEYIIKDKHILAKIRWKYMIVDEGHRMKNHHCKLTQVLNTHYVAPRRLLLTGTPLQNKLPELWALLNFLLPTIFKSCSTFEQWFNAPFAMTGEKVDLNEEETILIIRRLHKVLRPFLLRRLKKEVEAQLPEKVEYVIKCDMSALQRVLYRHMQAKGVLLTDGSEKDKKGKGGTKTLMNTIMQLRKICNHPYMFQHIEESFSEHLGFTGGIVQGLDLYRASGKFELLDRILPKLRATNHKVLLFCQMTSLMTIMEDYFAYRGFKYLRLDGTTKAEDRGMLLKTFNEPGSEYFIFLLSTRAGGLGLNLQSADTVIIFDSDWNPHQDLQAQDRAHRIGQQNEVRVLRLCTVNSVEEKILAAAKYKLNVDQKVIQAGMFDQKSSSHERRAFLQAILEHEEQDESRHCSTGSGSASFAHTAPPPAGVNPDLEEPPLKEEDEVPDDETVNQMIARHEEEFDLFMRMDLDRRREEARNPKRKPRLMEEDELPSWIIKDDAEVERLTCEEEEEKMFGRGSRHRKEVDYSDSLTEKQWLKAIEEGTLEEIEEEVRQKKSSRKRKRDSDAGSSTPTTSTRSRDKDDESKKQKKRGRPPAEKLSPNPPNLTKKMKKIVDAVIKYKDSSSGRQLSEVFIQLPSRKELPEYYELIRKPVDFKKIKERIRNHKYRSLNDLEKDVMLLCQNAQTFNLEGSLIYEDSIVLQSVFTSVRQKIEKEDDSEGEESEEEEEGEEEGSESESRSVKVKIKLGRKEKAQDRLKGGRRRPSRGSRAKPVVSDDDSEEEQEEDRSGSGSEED

[2] = biological target: von Hippel-Lindau disease tumor suppressor/SWI/SNF-related matrix-associated actin-dependent regulator of chromatin subfamily A member 4 (Homo sapiens, UniProt P40337+P51532); test: Protac activity at VHL/SMARCA4 in human A549 cells assessed as induction of SMARCA4 bromodomain degradation using anti-SMARCA4 antibody incubated for 18 hrs by WES capillary electrophoresis
Chain of von Hippel-Lindau disease tumor suppressor/SWI/SNF-related matrix-associated actin-dependent regulator of chromatin subfamily A member 4 (P51532 whole entry): as the sequence (P51532 whole entry, looked up) above
Chain of von Hippel-Lindau disease tumor suppressor/SWI/SNF-related matrix-associated actin-dependent regulator of chromatin subfamily A member 4 (P40337 whole entry): as the sequence (P40337 whole entry, looked up) above

[3] = biological target: von Hippel-Lindau disease tumor suppressor/SWI/SNF-related matrix-associated actin-dependent regulator of chromatin subfamily A member 2 (Homo sapiens, UniProt P40337+P51531); test: Protac activity at VHL/SMARCA2 in human A549 cells assessed as induction of SMARCA2 bromodomain degradation using rabbit anti-SMARCA2 antibody incubated for 18 hrs by WES capillary electrophoresis
Chain of von Hippel-Lindau disease tumor suppressor/SWI/SNF-related matrix-associated actin-dependent regulator of chromatin subfamily A member 2 (P51531 whole entry): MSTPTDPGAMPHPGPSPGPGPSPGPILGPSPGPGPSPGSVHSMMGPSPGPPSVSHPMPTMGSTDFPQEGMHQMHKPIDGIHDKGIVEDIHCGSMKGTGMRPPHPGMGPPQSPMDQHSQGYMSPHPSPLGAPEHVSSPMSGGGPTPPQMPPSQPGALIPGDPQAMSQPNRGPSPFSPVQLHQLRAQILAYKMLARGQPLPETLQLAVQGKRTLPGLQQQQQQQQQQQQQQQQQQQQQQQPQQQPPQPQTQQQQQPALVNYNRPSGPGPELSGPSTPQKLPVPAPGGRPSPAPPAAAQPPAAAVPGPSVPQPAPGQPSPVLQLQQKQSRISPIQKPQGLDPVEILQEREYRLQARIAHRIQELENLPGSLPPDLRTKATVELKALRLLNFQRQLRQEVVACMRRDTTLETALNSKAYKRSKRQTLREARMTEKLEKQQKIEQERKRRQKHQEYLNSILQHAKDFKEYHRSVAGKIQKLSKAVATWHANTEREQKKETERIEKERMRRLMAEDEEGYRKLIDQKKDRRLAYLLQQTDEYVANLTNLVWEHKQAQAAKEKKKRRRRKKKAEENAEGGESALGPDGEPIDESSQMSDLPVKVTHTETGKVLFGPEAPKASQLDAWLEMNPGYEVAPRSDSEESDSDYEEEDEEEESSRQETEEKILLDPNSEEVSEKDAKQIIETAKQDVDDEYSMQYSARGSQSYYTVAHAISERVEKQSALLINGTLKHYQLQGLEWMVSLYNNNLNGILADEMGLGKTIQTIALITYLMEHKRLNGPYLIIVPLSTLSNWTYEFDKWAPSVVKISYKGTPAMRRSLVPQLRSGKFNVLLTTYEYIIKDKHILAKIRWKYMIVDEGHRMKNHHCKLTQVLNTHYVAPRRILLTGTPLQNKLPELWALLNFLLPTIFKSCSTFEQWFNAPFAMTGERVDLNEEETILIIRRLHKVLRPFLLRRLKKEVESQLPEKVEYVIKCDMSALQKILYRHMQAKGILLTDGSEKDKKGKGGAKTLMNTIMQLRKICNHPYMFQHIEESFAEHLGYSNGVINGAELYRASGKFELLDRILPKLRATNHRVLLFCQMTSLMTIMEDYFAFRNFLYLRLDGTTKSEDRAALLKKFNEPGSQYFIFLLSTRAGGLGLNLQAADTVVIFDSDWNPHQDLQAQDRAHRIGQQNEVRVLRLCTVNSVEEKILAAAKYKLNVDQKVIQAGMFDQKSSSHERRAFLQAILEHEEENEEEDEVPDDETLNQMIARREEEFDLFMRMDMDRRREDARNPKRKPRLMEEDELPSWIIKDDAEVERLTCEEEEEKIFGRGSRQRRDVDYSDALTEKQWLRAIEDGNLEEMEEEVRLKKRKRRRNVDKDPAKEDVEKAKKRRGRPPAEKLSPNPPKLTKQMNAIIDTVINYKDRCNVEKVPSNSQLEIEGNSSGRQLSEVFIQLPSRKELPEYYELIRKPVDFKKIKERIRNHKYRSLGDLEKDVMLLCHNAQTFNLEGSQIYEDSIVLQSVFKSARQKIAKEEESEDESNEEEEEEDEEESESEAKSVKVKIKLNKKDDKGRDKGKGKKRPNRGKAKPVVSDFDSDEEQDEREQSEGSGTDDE
Chain of von Hippel-Lindau disease tumor suppressor/SWI/SNF-related matrix-associated actin-dependent regulator of chromatin subfamily A member 2 (P40337 whole entry): as the sequence (P40337 whole entry, looked up) above

[4] = biological target: von Hippel-Lindau disease tumor suppressor/SWI/SNF-related matrix-associated actin-dependent regulator of chromatin subfamily A member 2 (Homo sapiens) (UniProt P51531+P40337); test: Protac activity at VHL/SMARCA2 in human A549 cells assessed as induction of SMARCA2 bromodomain degradation using rabbit anti-SMARCA2 antibody incubated for 18 hrs by WES capillary electrophoresis relative to initial level
Chain of von Hippel-Lindau disease tumor suppressor/SWI/SNF-related matrix-associated actin-dependent regulator of chromatin subfamily A member 2 (Homo sapiens) (P40337 whole entry, looked up): as above
Chain of von Hippel-Lindau disease tumor suppressor/SWI/SNF-related matrix-associated actin-dependent regulator of chromatin subfamily A member 2 (Homo sapiens) (P51531 whole entry, looked up): as the sequence (P51531 whole entry) above

Structure (SMILES): Cc1ncsc1-c1ccc(CNC(=O)[C@@H]2C[C@@H](O)CN2C(=O)[C@@H](NC(=O)C2(F)CC2)C(C)(C)C)c(OCCCOc2ccc(CN3CCN(c4cc(-c5ccccc5O)nnc4N)CC3)cc2)c1
- Emax [1]: 100%
- EC50 [2]: 0.016 µM
- EC50 [3]: 0.026 µM
- Emax [4]: 99%

Structure (SMILES): Cc1ncsc1-c1ccc(CNC(=O)[C@@H]2C[C@@H](O)CN2C(=O)[C@@H](NC(=O)C2(F)CC2)C(C)(C)C)c(OCCc2ccc(CN3CCN(c4cc(-c5ccccc5O)nnc4N)CC3)cc2)c1
- Emax [1]: 93%
- EC50 [2]: 0.117 µM
- EC50 [3]: 0.067 µM
- Emax [4]: 91%

Structure (SMILES): Cc1ncsc1-c1ccc(CNC(=O)[C@@H]2C[C@@H](O)CN2C(=O)[C@@H](NC(=O)C2(F)CC2)C(C)(C)C)c(OCCc2ccc(OCCN3CCN(c4cc(-c5ccccc5O)nnc4N)CC3)cc2)c1
- Emax [1]: 99%
- EC50 [2]: 0.026 µM
- EC50 [3]: 0.041 µM
- Emax [4]: 99%

Structure (SMILES): Cc1ncsc1-c1ccc(CNC(=O)[C@@H]2C[C@@H](O)CN2C(=O)[C@@H](NC(=O)C2(F)CC2)C(C)(C)C)c(OCCCc2ccc(CN3CCN(c4cc(-c5ccccc5O)nnc4N)CC3)cc2)c1
- Emax [1]: 92%
- EC50 [2]: 0.025 µM
- EC50 [3]: 0.058 µM
- Emax [4]: 90%

Structure (SMILES): Cc1ncsc1-c1ccc(CNC(=O)[C@@H]2C[C@@H](O)CN2C(=O)[C@@H](NC(=O)C2(F)CC2)C(C)(C)C)c(OCCc2ccc(CN3CCN(c4cc(-c5ccccc5O)nnc4N)CC3)c(F)c2)c1
- Emax [1]: 95%
- EC50 [2]: 0.033 µM
- EC50 [3]: 0.055 µM
- Emax [4]: 95%

Structure (SMILES): Cc1ncsc1-c1ccc(CNC(=O)[C@@H]2C[C@@H](O)CN2C(=O)[C@@H](NC(=O)C2(F)CC2)C(C)(C)C)c(OCCOc2ccc(CN3CCN(c4cc(-c5ccccc5O)nnc4N)CC3)cc2)c1
- Emax [1]: 97%
- EC50 [2]: 0.016 µM
- EC50 [3]: 0.012 µM
- Emax [4]: 98%
